Measurements reported in paper PMC10211317, “Identification of ARUK2002821 as an isoform-selective PI5P4Kα inhibitor” (RSC Medicinal Chemistry, 2023).

How the values were obtained:
[1] = biological target: PI3K beta (Homo sapiens, UniProt P42338); assay: Lipid kinase panel (MRC PPU); type: biochemical; parameters: % activity remaining: dose or concentration left out as unconfirmed
Description: (§1) room temperature with shaking for 30 minutes. The kinase concentration in the eluates was measured by qPCR.
(§2) using ADP-GloTM assay at the MRC PPU International Centre for Kinase Profiling, University of Dundee.
(§3) Conducted by MRC PPU International Centre
(§4) Conducted by MRC PPU International Centre for […]

[2] = biological target: SPHK2 (Homo sapiens, UniProt Q9NRA0); assay: Lipid kinase panel (MRC PPU); type: biochemical; parameters: % activity remaining: dose or concentration left out as unconfirmed
Description: as §1, §2, §3, §4

[3] = biological target: DGK zeta (Homo sapiens, UniProt Q13574); assay: Lipid kinase panel (MRC PPU); type: biochemical; parameters: % activity remaining: dose or concentration left out as unconfirmed
DGK zeta, sequence (Q13574 whole entry, species assumed): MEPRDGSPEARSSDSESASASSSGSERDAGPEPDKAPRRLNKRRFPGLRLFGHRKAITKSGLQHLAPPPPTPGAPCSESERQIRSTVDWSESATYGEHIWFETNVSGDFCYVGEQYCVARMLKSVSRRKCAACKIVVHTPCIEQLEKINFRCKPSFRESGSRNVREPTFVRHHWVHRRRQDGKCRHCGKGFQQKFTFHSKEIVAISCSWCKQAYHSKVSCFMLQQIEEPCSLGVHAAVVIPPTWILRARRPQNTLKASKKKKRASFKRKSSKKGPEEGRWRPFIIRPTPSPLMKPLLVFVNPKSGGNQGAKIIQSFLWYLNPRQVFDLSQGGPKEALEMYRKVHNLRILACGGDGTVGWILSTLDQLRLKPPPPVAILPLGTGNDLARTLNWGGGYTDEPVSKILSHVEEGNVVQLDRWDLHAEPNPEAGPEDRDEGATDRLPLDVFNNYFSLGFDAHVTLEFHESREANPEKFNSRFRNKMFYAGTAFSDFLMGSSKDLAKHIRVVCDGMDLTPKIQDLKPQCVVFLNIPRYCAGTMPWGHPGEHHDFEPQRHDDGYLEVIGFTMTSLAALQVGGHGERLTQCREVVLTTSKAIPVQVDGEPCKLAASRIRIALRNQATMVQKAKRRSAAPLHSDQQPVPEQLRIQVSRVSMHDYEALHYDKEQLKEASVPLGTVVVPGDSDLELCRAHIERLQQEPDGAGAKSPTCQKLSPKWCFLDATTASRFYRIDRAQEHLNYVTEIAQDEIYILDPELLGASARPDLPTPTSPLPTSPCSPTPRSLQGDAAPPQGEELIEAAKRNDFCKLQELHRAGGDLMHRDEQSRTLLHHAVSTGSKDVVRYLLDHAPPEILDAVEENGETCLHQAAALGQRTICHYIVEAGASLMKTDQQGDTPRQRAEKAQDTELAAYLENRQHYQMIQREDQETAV
Description: as §1, §2, §3, §4

[4] = biological target: PI3Ka E545K + p85 (Homo sapiens, UniProt P42336, E545K); assay: Lipid kinase panel (MRC PPU); type: biochemical; parameters: % activity remaining: dose or concentration left out as unconfirmed
Description: as §1, §2, §3, §4

[5] = biological target: CHK beta (Homo sapiens, UniProt Q9Y259); assay: Lipid kinase panel (MRC PPU); type: biochemical; parameters: % activity remaining: dose or concentration left out as unconfirmed
CHK beta, sequence (Q9Y259 whole entry): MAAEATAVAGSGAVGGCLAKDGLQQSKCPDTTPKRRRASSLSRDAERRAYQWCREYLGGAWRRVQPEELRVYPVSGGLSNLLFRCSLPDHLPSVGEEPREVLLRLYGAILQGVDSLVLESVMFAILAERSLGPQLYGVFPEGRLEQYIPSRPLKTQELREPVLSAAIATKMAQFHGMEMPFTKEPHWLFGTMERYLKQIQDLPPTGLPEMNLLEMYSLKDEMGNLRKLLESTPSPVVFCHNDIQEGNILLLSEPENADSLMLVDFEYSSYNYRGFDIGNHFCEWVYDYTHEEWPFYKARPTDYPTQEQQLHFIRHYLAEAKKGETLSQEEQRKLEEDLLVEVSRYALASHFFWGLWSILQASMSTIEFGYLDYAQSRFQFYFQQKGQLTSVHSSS
Description: as §1, §2, §3, §4

[6] = biological target: PI3K alpha (Homo sapiens, UniProt P42336); assay: Lipid kinase panel (MRC PPU); type: biochemical; parameters: % activity remaining: dose or concentration left out as unconfirmed
Description: as §1, §2, §3, §4

[7] = biological target: PIK4CB (Homo sapiens, UniProt Q9UBF8); assay: Lipid kinase panel (MRC PPU); type: biochemical; parameters: % activity remaining: dose or concentration left out as unconfirmed
Description: as §1, §2, §3, §4

[8] = biological target: DGK gamma (Homo sapiens, UniProt P49619); assay: Lipid kinase panel (MRC PPU); type: biochemical; parameters: % activity remaining: dose or concentration left out as unconfirmed
DGK gamma, sequence (P49619 whole entry, species assumed): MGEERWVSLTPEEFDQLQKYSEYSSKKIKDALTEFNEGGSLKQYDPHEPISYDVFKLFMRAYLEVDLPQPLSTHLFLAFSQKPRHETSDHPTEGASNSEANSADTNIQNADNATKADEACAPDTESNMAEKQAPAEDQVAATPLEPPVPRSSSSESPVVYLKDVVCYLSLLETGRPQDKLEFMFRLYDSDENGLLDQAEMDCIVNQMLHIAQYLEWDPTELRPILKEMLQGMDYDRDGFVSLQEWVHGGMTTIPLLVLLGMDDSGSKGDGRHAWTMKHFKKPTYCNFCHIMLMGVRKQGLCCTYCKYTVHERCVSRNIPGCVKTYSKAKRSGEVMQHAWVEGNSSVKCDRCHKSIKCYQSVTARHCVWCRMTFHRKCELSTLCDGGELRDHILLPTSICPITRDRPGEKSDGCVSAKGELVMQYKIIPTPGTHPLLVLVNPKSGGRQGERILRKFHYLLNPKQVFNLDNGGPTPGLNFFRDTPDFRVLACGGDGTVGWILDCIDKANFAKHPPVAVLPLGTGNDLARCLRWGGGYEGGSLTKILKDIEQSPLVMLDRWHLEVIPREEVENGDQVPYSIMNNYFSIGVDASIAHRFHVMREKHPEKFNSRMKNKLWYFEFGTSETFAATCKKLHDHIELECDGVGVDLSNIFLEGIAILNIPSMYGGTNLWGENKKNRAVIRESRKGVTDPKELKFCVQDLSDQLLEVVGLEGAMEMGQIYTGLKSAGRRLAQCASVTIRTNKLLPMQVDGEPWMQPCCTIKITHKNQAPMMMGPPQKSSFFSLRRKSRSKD
Description: as §1, §2, §3, §4

[9] = biological target: SPHK1 (Homo sapiens, UniProt Q9NYA1); assay: Lipid kinase panel (MRC PPU); type: biochemical; parameters: % activity remaining: dose or concentration left out as unconfirmed
SPHK1, sequence (Q9NYA1 whole entry, species assumed): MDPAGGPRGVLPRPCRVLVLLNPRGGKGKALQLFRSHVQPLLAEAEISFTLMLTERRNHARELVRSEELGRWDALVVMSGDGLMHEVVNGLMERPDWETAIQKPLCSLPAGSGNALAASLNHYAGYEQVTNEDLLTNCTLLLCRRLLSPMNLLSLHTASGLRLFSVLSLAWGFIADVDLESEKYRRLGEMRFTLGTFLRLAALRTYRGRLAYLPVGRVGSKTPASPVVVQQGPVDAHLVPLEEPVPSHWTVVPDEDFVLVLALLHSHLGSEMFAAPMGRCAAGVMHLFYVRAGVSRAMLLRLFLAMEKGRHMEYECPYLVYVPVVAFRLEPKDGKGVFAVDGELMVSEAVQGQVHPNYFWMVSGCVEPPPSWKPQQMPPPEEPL
Description: as §1, §2, §3, §4

[10] = biological target: CHK alpha (Homo sapiens, UniProt P35790); assay: Lipid kinase panel (MRC PPU); type: biochemical; parameters: % activity remaining: dose or concentration left out as unconfirmed
CHK alpha, sequence (P35790 whole entry): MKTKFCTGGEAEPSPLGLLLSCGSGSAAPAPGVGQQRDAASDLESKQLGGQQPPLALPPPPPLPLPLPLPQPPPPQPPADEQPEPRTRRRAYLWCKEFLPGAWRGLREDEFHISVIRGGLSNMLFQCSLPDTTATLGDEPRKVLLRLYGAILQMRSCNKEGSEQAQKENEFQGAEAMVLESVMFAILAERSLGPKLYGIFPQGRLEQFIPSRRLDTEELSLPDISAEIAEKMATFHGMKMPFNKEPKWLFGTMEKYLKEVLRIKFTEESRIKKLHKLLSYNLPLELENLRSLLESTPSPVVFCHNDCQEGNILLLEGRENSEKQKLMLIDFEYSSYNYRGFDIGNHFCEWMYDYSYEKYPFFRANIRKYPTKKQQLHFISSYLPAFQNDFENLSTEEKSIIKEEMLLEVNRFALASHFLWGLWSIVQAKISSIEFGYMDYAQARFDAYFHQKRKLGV
Description: as §1, §2, §3, §4

[11] = biological target: PI4K2a (Homo sapiens, UniProt Q9BTU6); assay: Lipid kinase panel (MRC PPU); type: biochemical; parameters: % activity remaining: dose or concentration left out as unconfirmed
PI4K2a, sequence (Q9BTU6 whole entry, species assumed): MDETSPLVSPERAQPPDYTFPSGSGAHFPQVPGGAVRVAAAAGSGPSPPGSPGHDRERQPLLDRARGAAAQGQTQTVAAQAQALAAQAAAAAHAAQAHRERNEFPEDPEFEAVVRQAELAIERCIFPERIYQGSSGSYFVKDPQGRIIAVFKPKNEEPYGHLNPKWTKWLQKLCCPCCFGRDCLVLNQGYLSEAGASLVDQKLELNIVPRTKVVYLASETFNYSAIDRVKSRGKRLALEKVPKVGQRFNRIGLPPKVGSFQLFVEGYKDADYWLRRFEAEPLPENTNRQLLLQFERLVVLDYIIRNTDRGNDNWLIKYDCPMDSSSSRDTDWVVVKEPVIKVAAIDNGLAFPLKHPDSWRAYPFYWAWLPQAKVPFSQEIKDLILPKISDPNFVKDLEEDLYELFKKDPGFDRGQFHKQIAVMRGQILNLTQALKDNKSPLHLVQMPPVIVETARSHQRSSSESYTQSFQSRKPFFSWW
Description: as §1, §2, §3, §4

[12] = biological target: PI3K gamma (Homo sapiens, UniProt P48736); assay: Lipid kinase panel (MRC PPU); type: biochemical; parameters: % activity remaining: dose or concentration left out as unconfirmed
PI3K gamma, sequence (P48736 whole entry, species assumed): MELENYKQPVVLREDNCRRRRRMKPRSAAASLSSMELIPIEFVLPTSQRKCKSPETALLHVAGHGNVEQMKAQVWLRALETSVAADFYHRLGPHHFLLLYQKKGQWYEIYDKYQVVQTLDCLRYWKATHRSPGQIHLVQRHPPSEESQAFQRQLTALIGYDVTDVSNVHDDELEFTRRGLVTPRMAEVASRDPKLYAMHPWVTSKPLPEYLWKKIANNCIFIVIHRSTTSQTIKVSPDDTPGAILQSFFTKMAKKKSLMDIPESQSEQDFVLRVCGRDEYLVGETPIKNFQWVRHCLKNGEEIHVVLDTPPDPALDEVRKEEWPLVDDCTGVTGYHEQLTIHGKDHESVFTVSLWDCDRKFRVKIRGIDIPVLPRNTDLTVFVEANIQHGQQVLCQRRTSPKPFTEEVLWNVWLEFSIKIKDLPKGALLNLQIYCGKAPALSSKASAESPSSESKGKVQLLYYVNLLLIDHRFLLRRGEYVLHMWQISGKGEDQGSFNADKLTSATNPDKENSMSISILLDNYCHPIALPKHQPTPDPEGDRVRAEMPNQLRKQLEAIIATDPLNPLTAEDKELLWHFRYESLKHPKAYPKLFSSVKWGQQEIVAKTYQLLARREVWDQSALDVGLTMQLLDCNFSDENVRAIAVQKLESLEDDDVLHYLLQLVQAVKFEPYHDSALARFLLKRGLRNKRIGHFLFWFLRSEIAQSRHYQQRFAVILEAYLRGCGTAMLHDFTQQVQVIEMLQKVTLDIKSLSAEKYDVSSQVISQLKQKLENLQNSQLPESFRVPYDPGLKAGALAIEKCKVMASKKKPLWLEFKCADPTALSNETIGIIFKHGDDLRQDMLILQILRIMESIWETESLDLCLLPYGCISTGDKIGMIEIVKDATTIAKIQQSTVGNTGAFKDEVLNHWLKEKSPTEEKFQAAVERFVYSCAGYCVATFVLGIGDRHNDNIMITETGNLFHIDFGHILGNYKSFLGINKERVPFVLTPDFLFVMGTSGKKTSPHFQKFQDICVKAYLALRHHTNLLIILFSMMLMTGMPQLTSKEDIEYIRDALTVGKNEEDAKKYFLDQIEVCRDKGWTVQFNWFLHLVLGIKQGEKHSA
Description: as §1, §2, §3, §4

[13] = biological target: DGK beta (Homo sapiens, UniProt Q9Y6T7); assay: Lipid kinase panel (MRC PPU); type: biochemical; parameters: % activity remaining: dose or concentration left out as unconfirmed
Description: as §1, §2, §3, §4

[14] = Mouse microsomal stability; type: in vitro ADME; settings: mouse liver microsomes; read-out: MLM t1/2
Description: ADMET experimental methods […]
Mouse Microsomal stability: analysis was performed by Cyprotex Discovery. Briefly, test compounds in DMSO were incubated at a concentration of 1 µM (0.25% DMSO final) with mouse hepatic microsomes (0.5 mg protein/mL) in the presence of NADPH (1 mM) at 37 °C. Aliquots were taken at time intervals (0, 5, 15, 30 and 45 min) and stopped by transferring into acetonitrile, then analysed using generic LC-MS/MS conditions for compound remaining, allowing the determination of the half-life for the compound.

[15] = tested on: PHK; settings: PHK (Entrez PHK); 1 μM
Description: as §1, §2, §3, §4

[16] = tested on: PI3Ka E524K + p85; settings: 1 μM
Description: as §1, §2, §3, §4

[17] = biological target: T1, PI5P4Kβ (Homo sapiens, UniProt P78356); assay: ADP-Glo kinase assay PI5P4Kβ; type: biochemical; settings: single concentration of 100 μM
T1 sequence (P78356 1-416): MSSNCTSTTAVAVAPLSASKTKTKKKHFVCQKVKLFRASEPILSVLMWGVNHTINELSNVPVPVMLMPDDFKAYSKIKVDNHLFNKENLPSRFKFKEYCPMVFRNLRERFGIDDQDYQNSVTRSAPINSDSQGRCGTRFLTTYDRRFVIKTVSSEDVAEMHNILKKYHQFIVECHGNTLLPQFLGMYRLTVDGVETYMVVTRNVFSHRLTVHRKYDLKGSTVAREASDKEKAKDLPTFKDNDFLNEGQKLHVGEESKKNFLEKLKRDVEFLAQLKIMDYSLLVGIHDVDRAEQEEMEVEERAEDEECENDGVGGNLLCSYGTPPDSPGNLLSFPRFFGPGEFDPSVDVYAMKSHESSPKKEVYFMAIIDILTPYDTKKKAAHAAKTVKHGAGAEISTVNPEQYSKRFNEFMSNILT
Description: Assays to determine kinase activity of PI5P4Ks in the presence of inhibitors using an ADP-Glo assay (Promega) were performed as described previously.[28] […] Cultures were induced with 0.4 mM IPTG overnight and probe-sonicated in the presence of protease inhibitors. […] The cleaved protein was further purified by size-exclusion chromatography (ÄKTA Pure, Cytiva). […] The protein purity was confirmed by sodium dodecyl sulfate–polyacrylamide gel electrophoresis, and the concentration was determined by colorimetric assay (Bio-Rad).
Statistical analysis was performed using nonparametric testing in Prism 8 (GraphPad). Activity pIC50 values and in vivo binding pEC50 values were estimated using a 4-parameter fit (Dotmatics).

[18] = 1 μM, read-out: residual activity (%)

SMILES: CC1(C)CN(c2ncc(C(=O)Nc3cccc(C(F)(F)F)c3)c(N)n2)C(=O)N1 [compound 7, Imanixil]
- % activity remaining ([1]; PI3K b, ADP-Glo): 109%
- % activity remaining ([2]; ADP-Glo): 99%
- % activity remaining ([3]; DGK z, ADP-Glo): 101%
- % activity remaining ([4]; ADP-Glo): 107%
- % activity remaining ([5]; CHK b, ADP-Glo): 99%
- % activity remaining ([6]; PI3K a, ADP-Glo): 106%
- % activity remaining ([7]; PIK4CB, ADP-Glo): 94%
- % activity remaining ([8]; DGK g, ADP-Glo): 100%
- % activity remaining ([9]; ADP-Glo): 98%
- % activity remaining ([10]; CHK a, ADP-Glo): 101%
- % activity remaining ([11]; ADP-Glo): 100%
- % activity remaining ([12]; PI3K g, ADP-Glo): 79%
- % activity remaining ([13]; DGK b, ADP-Glo): 97%

SMILES: COc1ccc(Nc2ncnc3c2ccn3-c2ccc(C)c(C)c2)cc1Cl [compound 36]
- half-life at 1 µM [14]: 11 min
- residual activity (%) [15]: 94%
- residual activity (%) [16]: 101.5%
- inhibition at 100 µM [17]: 4%
- remaining activity at 1 µM ([1]; PI3K beta, 1 μM, read-out: residual activity (%)): 83.1%
- remaining activity at 1 µM [2, 18]: 81.7%
- remaining activity at 1 µM ([3]; DGK zeta, 1 μM, read-out: residual activity (%)): 100%
- remaining activity at 1 µM [4, 18]: 97.6%
- remaining activity at 1 µM ([5]; CHK beta, 1 μM, read-out: residual activity (%)): 93.4%
- remaining activity at 1 µM ([6]; PI3K alpha, 1 μM, read-out: residual activity (%)): 83.8%
- remaining activity at 1 µM ([7]; PIK4Cb, 1 μM, read-out: residual activity (%)): 101%
- remaining activity at 1 µM ([8]; DGK gamma, 1 μM, read-out: residual activity (%)): 106%
- remaining activity at 1 µM [9, 18]: 92.9%
- remaining activity at 1 µM ([10]; CHK alpha, 1 μM, read-out: residual activity (%)): 87.8%
- remaining activity at 1 µM [11, 18]: 95.7%
- remaining activity at 1 µM ([12]; read-out: residual activity (%)): 100%
- remaining activity at 1 µM ([13]; DGK beta, 1 μM, read-out: residual activity (%)): 100%
